Data taken from the supplement of paper PMC10307832.

Assays:
Test in all cases: relative viability (nuclei count vs DMSO), 5 days (fraction); higher = more cells survive
Selisistat + Bortezomib = compound: C1CC(C2=C(C1)C3=C(N2)C=CC(=C3)Cl)C(=O)N [Selisistat] + CC(C)C[C@H](NC(=O)[C@H](Cc1ccccc1)NC(=O)c1cnccn1)B(O)O [Bortezomib] (partner 0.002 µM)
In short: (§1)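 Lung cancer cell lines were pin-tool dosed in 1536-well plates on the day after seeding, with either a lone drug or a fixed anchor-drug dose plus five library-drug doses (not always all listed) in √10 steps. Nuclei were counted on 4× images after 5 days. Relative viability is the ratio of treated-well to vehicle-well nuclei counts, with each value a median of duplicate plates.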

Selisistat + Linsitinib = compound: C1CC(C2=C(C1)C3=C(N2)C=CC(=C3)Cl)C(=O)N [Selisistat] + C[C@]1(O)C[C@@H](c2nc(-c3ccc4ccc(-c5ccccc5)nc4c3)c3c(N)nccn32)C1 [Linsitinib] (partner 1 µM)
In short: as §1

Serdemetan + Palbociclib = compound: c1ccc2c(CCNc3ccc(Nc4ccncc4)cc3)c[nH]c2c1 [Serdemetan] + CC(=O)c1c(C)c2cnc(Nc3ccc(N4CCNCC4)cn3)nc2n(C2CCCC2)c1=O [Palbociclib] (partner 0.5 µM)
In short: as §1

Serdemetan + Dasatinib = compound: c1ccc2c(CCNc3ccc(Nc4ccncc4)cc3)c[nH]c2c1 [Serdemetan] + Cc1nc(Nc2ncc(C(=O)Nc3c(C)cccc3Cl)s2)cc(N2CCN(CCO)CC2)n1 [Dasatinib] (partner 0.075 µM)
In short: as §1

PC-14
relative viability (Selisistat + Bortezomib; first compound 0.4 µM): 0.848 | relative viability (Selisistat + Bortezomib; first compound 1.265 µM): 0.713 | relative viability (Selisistat + Bortezomib; first compound 4 µM): 0.861 | relative viability (Selisistat + Bortezomib; first compound 12.65 µM): 0.886 | relative viability (Selisistat + Bortezomib; first compound 40 µM): 0.888 | relative viability (Selisistat + Linsitinib; first compound 0.4 µM): 0.951 | relative viability (Selisistat + Linsitinib; first compound 1.265 µM): 1.05 | relative viability (Selisistat + Linsitinib; first compound 4 µM): 0.963 | relative viability (Selisistat + Linsitinib; first compound 12.65 µM): 0.946 | relative viability (Selisistat + Linsitinib; first compound 40 µM): 0.951 | relative viability (Serdemetan + Palbociclib; first compound 0.04 µM): 0.546 | relative viability (Serdemetan + Palbociclib; first compound 0.1265 µM): 0.546 | relative viability (Serdemetan + Palbociclib; first compound 1.265 µM): 0.467 | relative viability (Serdemetan + Palbociclib; first compound 4 µM): 0.346 | relative viability (Serdemetan + Dasatinib; first compound 0.04 µM): 0.262 | relative viability (Serdemetan + Dasatinib; first compound 0.1265 µM): 0.247 | relative viability (Serdemetan + Dasatinib; first compound 0.4 µM): 0.115 | relative viability (Serdemetan + Dasatinib; first compound 1.265 µM): 0.308 | relative viability (Serdemetan + Dasatinib; first compound 4 µM): 0.147

RERF-LC-KJ
relative viability (Selisistat + Bortezomib; first compound 0.4 µM): 1.18 | relative viability (Selisistat + Bortezomib; first compound 1.265 µM): 1.02 | relative viability (Selisistat + Bortezomib; first compound 4 µM): 0.974 | relative viability (Selisistat + Bortezomib; first compound 12.65 µM): 1 | relative viability (Selisistat + Bortezomib; first compound 40 µM): 1.05 | relative viability (Selisistat + Linsitinib; first compound 0.4 µM): 0.969 | relative viability (Selisistat + Linsitinib; first compound 1.265 µM): 0.878 | relative viability (Selisistat + Linsitinib; first compound 4 µM): 0.937 | relative viability (Selisistat + Linsitinib; first compound 12.65 µM): 0.88 | relative viability (Selisistat + Linsitinib; first compound 40 µM): 0.775 | relative viability (Serdemetan + Palbociclib; first compound 0.04 µM): 1.06 | relative viability (Serdemetan + Palbociclib; first compound 0.1265 µM): 0.962 | relative viability (Serdemetan + Palbociclib; first compound 0.4 µM): 0.975 | relative viability (Serdemetan + Palbociclib; first compound 1.265 µM): 1.04 | relative viability (Serdemetan + Palbociclib; first compound 4 µM): 0.824 | relative viability (Serdemetan + Dasatinib; first compound 0.04 µM): 0.837 | relative viability (Serdemetan + Dasatinib; first compound 0.1265 µM): 0.788 | relative viability (Serdemetan + Dasatinib; first compound 0.4 µM): 0.667 | relative viability (Serdemetan + Dasatinib; first compound 1.265 µM): 0.657 | relative viability (Serdemetan + Dasatinib; first compound 4 µM): 0.69

SK-LU-1
relative viability (Selisistat + Bortezomib; first compound 0.4 µM): 1.23 | relative viability (Selisistat + Bortezomib; first compound 4 µM): 1.27 | relative viability (Selisistat + Bortezomib; first compound 12.65 µM): 0.998 | relative viability (Selisistat + Bortezomib; first compound 40 µM): 1.75 | relative viability (Selisistat + Linsitinib; first compound 0.4 µM): 1.18 | relative viability (Selisistat + Linsitinib; first compound 1.265 µM): 1.28 | relative viability (Selisistat + Linsitinib; first compound 4 µM): 1.35 | relative viability (Selisistat + Linsitinib; first compound 12.65 µM): 1.1 | relative viability (Selisistat + Linsitinib; first compound 40 µM): 1.04 | relative viability (Serdemetan + Palbociclib; first compound 0.04 µM): 0.37 | relative viability (Serdemetan + Palbociclib; first compound 0.1265 µM): 0.393 | relative viability (Serdemetan + Palbociclib; first compound 0.4 µM): 0.365 | relative viability (Serdemetan + Palbociclib; first compound 1.265 µM): 0.319 | relative viability (Serdemetan + Palbociclib; first compound 4 µM): 0.346 | relative viability (Serdemetan + Dasatinib; first compound 0.04 µM): 0.212 | relative viability (Serdemetan + Dasatinib; first compound 0.1265 µM): 0.183 | relative viability (Serdemetan + Dasatinib; first compound 0.4 µM): 0.183 | relative viability (Serdemetan + Dasatinib; first compound 4 µM): 0.179

SW 1573
relative viability (Selisistat + Bortezomib; first compound 0.4 µM): 1.19 | relative viability (Selisistat + Bortezomib; first compound 1.265 µM): 1.02 | relative viability (Selisistat + Bortezomib; first compound 4 µM): 1.03 | relative viability (Selisistat + Bortezomib; first compound 12.65 µM): 1.02 | relative viability (Selisistat + Bortezomib; first compound 40 µM): 1.03 | relative viability (Selisistat + Linsitinib; first compound 0.4 µM): 0.859 | relative viability (Selisistat + Linsitinib; first compound 1.265 µM): 0.823 | relative viability (Selisistat + Linsitinib; first compound 4 µM): 0.747 | relative viability (Selisistat + Linsitinib; first compound 12.65 µM): 0.904 | relative viability (Selisistat + Linsitinib; first compound 40 µM): 0.84 | relative viability (Serdemetan + Palbociclib; first compound 0.04 µM): 0.446 | relative viability (Serdemetan + Palbociclib; first compound 0.1265 µM): 0.362 | relative viability (Serdemetan + Palbociclib; first compound 0.4 µM): 0.444 | relative viability (Serdemetan + Palbociclib; first compound 1.265 µM): 0.343 | relative viability (Serdemetan + Palbociclib; first compound 4 µM): 0.234 | relative viability (Serdemetan + Dasatinib; first compound 0.04 µM): 0.452 | relative viability (Serdemetan + Dasatinib; first compound 0.1265 µM): 0.488 | relative viability (Serdemetan + Dasatinib; first compound 0.4 µM): 0.511 | relative viability (Serdemetan + Dasatinib; first compound 1.265 µM): 0.396 | relative viability (Serdemetan + Dasatinib; first compound 4 µM): 0.217
